In patent publication US11124496B2, “Imidazolidine compounds” (Eli Lilly and Company, priority 2017, dated 2021):

How the values were obtained:
[1] = target: recombinant human ASK1 (hASK1) catalytic domain (Homo sapiens (Human), UniProt Q99683); assay: ASK1 enzymatic assay (ADP-Glo Kinase Assay); format: biochemical; details: for IC50: hASK1 0.25 nM, MKK6 300 nM, ATP 100 uM, Mean±Standard Deviation; for Efficacy (%): hASK1 enzymatic assay, standard ASK1 inhibitor = 100% inhibition, DMSO vehicle = 0%
From the text: ASK1 Inhibitor Effect Determined by ASK1 Enzymatic Assay
The purpose of this assay is to determine the effect of ASK1 inhibitors on the production of ADP by ASK1. The recombinant human ASK1 (hASK1) catalytic domain tagged with Glutathione S-transferase is used, and histidine-tagged full-length human MAP kinase kinase 6 (MKK6) and ATP are the substrate and cofactor, respectively.
The assay is done using an ADP-Glo™ Kinase Assay Kit (Promega, Catalog #V9102) according to the manufacturer's protocol with the following modifications. Briefly, hASK1 (0.25 nM) and MKK6 (300 nM) in a buffer (10 mM MOPS pH 7.0; 10 mM Mg-Acetate; 1 mM DTT; 0.025% NP-40; 0.05% BSA; 1.5% glycerol) are incubated with ASK1 inhibitors at varying concentrations ranging from 10.00 uM to 0.17 nM for 15 minutes, followed by incubation with ATP (100 uM) for 30 minutes at room temperature. ADP-Glo™ Reagent is added to terminate the kinase reaction and deplete the remaining ATP. The Kinase Detection Reagent is then added to convert ADP to ATP. The newly synthesized ATP is measured using a luciferase/luciferin reaction, and the luminescence determined by Envision (PerkinElmer). The luminescence intensities are analyzed by GeneData, and fit to a 4 parameter dose response-inhibitor logistics curve to determine IC50 values, using the effects of 5-(4-cyclopropyl-1H-imidazol-1-yl)-2-fluoro-4-methyl-N-{6-[4-(propan-2-yl)-4H-1,2,4-triazol-3-yl]pyridin-2-yl}benzamide as a standard and DMSO vehicle for 100% and 0% inhibition, respectively.

[2] = target: human ASK1 (Homo sapiens (Human), UniProt Q99683); assay: ASK1 autophosphorylation (Thr838) assay in HEK293 cells overexpressing human ASK1; format: cell-based; details: for IC50: H2O2-stimulated (1 mM, 10 minutes) ASK1 autophosphorylation at Thr838, HEK293 cells, Mean±Standard Deviation, read-out: HEK pASK1 IC50; for Efficacy (%): HEK pASK1 assay, standard ASK1 inhibitor = 100% inhibition, DMSO vehicle = 0%
Chain of human ASK1 (Q99683 whole entry): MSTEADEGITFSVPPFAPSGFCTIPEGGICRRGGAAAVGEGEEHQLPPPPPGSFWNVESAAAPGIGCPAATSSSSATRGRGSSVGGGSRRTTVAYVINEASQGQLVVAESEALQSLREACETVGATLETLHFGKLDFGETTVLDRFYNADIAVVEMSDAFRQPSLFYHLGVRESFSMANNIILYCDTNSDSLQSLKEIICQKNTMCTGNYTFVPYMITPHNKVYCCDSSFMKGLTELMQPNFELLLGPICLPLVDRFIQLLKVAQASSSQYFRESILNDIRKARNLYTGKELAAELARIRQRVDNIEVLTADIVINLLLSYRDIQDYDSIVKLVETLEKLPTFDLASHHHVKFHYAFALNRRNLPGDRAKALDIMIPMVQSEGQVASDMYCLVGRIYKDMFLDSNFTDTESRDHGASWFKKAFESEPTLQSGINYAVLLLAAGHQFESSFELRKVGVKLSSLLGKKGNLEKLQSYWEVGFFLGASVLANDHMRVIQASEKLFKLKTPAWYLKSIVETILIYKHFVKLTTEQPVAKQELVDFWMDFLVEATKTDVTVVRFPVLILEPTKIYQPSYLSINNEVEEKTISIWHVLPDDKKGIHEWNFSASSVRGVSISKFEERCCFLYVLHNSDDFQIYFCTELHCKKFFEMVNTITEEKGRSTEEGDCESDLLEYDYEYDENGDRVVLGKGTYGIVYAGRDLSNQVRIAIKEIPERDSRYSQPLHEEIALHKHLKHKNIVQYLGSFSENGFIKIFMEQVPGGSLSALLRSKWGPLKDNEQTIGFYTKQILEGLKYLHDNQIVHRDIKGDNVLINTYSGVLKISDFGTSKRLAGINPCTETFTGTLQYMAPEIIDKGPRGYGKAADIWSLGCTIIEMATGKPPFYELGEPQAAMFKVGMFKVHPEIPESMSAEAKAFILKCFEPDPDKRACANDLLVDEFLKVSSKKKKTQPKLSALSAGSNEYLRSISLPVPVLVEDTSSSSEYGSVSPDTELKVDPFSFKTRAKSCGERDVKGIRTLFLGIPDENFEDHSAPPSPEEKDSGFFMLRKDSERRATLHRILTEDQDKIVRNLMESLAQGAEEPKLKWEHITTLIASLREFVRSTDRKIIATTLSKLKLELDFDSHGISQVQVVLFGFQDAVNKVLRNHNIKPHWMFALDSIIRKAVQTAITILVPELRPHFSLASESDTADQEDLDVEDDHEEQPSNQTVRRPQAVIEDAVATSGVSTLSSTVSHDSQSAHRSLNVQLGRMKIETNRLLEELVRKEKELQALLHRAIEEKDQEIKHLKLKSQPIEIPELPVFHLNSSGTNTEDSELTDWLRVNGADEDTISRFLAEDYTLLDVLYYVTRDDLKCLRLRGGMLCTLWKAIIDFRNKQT

Chain of recombinant human ASK1 (hASK1) catalytic domain (Q99683 680-938): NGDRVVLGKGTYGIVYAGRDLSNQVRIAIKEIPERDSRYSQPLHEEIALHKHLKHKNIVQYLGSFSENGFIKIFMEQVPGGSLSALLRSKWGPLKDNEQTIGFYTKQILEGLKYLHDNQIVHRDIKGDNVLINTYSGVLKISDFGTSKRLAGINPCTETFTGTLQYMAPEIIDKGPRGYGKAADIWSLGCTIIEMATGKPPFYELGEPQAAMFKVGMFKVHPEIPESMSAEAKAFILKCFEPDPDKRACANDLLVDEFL

Row | Compound | IC50 [1] | Efficacy (%) [1] | IC50 [2] | Efficacy (%) [2]
1 | CC(C)n1cnnc1-c1cccc(N2CCN(CCc3cnc(C4CC4)nc3)C2=O)n1 [Example 4, 1-[2-(2-Cyclopropylpyrimidin-5-yl)ethyl]-3-[6-(4-isopropyl-1,2,4-triazol-3-yl)-2-pyridyl]imidazolidin-2-one] | 13.7 ± 6.57 nM | 100% | 735 nM | 107%
2 | CC(C)n1cnnc1-c1cccc(N2CCN(CCc3cccnc3)C2=O)n1 [Example 1, 1-[6-(4-Isopropyl-1,2,4-triazol-3-yl)-2-pyridyl]-3-[2-(3-pyridyl)ethyl]imidazolidin-2-one] | 36 ± 6.25 nM | 100% | 1400 nM | 80.5%
3 | CC(C)n1cnnc1-c1cccc(N2CCN(CCn3cnc(C4CC4)c3)C2=O)n1 [Example 3, 1-[2-(4-Cyclopropylimidazol-1-yl)ethyl]-3-[6-(4-isopropyl-1,2,4-triazol-3-yl)-2-pyridyl]imidazolidin-2-one] | 10.8 ± 2.01 nM | 100% | 1130 ± 300 nM | 101%
4 | CC(C)n1cnnc1-c1cccc(N2CCN([C@H](C)Cn3cnc(C4CC4)c3)C2=O)n1 [Example 2, 1-[(1R)-2-(4-Cyclopropylimidazol-1-yl)-1-methyl-ethyl]-3-[6-(4-isopropyl-1,2,4-triazol-3-yl)-2-pyridyl]imidazolidin-2-one] | 14 ± 2.61 nM | 100% | 886 ± 65.4 nM | 96.0%

More lines, now with the values ahead:

Row | IC50 [1] | Efficacy (%) [1] | IC50 [2] | Efficacy (%) [2] | Compound
5 | 16.6 ± 3.16 nM | 100% | 520 nM | 100% | Cc1ccc(CCN2CCN(c3cccc(-c4nncn4C(C)C)n3)C2=O)cn1 [Example 7, 1-[6-(4-Isopropyl-1,2,4-triazol-3-yl)-2-pyridyl]-3-[2-(6-methyl-3-pyridyl)ethyl]imidazolidin-2-one]
6 | 88.3 ± 21.8 nM | 100% |  |  | Cc1ncc(CCN2CCN(c3cccc(-c4nncn4C(C)C)n3)C2=O)cn1 [Example 6, 1-[6-(4-Isopropyl-1,2,4-triazol-3-yl)-2-pyridyl]-3-[2-(2-methylpyrimidin-5-yl)ethyl]imidazolidin-2-one]
7 | 64.4 ± 58.5 nM | 100% | 3770 nM | 100% | CC(C)n1cnnc1-c1cccc(N2CCNC2=O)n1 [Example 5, 1-(6-(4-Isopropyl-4H-1,2,4-triazol-3-yl)pyridin-2-yl)imidazolidin-2-one]
